Source: patent publication EP0197829A1, “5H-pyrido[3',4':4,5]pyrrolo[3,2-c]pyridine derivatives, process for their preparation and their antitunour activity” (SANOFI, priority 1985, dated 1986)
Several values for one entry are separate records, joined by “and”; a condition that tells them apart may be missing. Identical values can stand only once. Like-named read-outs stand apart in the source and are kept apart here.

Experiments:
[1] = system: lignée tumorale leucémie L 1210; experiment: In vitro cytotoxicity on L 1210 leukemia cell culture; assay type: cell-based; conditions: Mus musculus, L1210; concentration inhibiting cell proliferation by 50 p. 100, after 48 h contact; read-out: ID 50 (the source's name)
Experimental: 1) In vitro : (PAOLETTI et al., Chem. Biol. Interaction, 1979, 25, 45-58).
L'activité cytotoxique des composés de l'invention a été évaluée par des essais in vitro. Ces essais consistent à ajouter des concentrations croissantes du composé à tester à une culture cellulaire de la lignée tumorale leucémie L 1210 en phase exponentielle de croissance. Les cellules sont incubées à 37°C dans une étuve à C02 et comptées toutes les 24 heures. Le calcul de l'ID 50 (concentration du produit exprimée en micromole 1^-1 qui inhibe la prolifération cellulaire à 50 p. 100) est effectué après 48 heures de contact. Ainsi déterminées, les ID 50 des composés de l'invention sont rassemblées dans le tableau I ci-après : […]

in vivo = experiment: in vivo; set-up: species or system souris; conditions: mouse, ip, 100 mg/kg
Experimental: Ainsi, l'administration à des souris hybrides CDF1 saines, en une injection unique par la voie intrapéritonéale, de doses croissantes des composés à tester (5 mg, 10 mg, 20 mg, 40 mg/kg) a permis de constater que, à ces doses, les produits étaient parfaitement tolérés puisque le taux de survivants était de 100 p. 100.
Dans les mêmes conditions, administrés à des souris BDF1 saines, les taux de survivants étaient de 100 p. 100 jusqu'à 100 mg/kg pour les dérivés 1, 3 et 9 et jusqu'à 200 mg/kg pour les dérivés 2 et 8.

leucémie P 388 = assay type: in vivo, souris hybrides CDF1
Text: (§1) L'activité antitumorale a été testée in vivo sur différentes tumeurs selon le protocole général suivant : Toutes les souris mâles ou femelles sont inoculées par voie intrapéritonéale au jour Jo avec une quantité déterminée de cellules tumorales viables, variable selon la tumeur.
(§2) Elles sont ensuite réparties en différents lots. Chaque lot correspondant aux animaux traités par le produit à tester à une dose déterminée est composé de lO souris. Dans ce cas, le produit à tester est dissous dans l'eau distillée et il est administré, pendant n jours (J1-Jn) variables selon le protocole choisi, par voie intrapéritonéale à raison de 0,1 ml par lO g de poids des souris traitées, les doses du produit administré étant précisées dans les tableaux ci-dessous.
(§3) Le lot "Contrôle négatif", correspondant aux animaux qui ne sont pas traités par un produit, comprend 2 √N animaux, N étant égal au nombre total de souris traitées par un produit.
(§4) Enfin, tous lés essais sont conduits parallèlement à l'étude d'un lot appelé "Contrôle positif" de 10 animaux qui est traité par une molécule active, variable selon le protocole choisi, dans les mêmes conditions que les lots traités par le produit à tester, afin de valider l'essai.
(§5) L'activité antitumorale est évaluée en considérant l'augmentation du temps de survie des animaux traités par rapport à celui des animaux du lot "Contrôle négatif" selon la formule : • Jour médian de survie des animaux traités à une T/C = dose donnée de produit x 100 • Jour médian de survie des animaux "Contrôle négatif"
(§6) Un composé est considéré comme étant actif lorsque la valeur du rapport T/C est égale ou supérieure à 125 % selon le protocole retenu. Il est toxique lorsque cette valeur est égale ou inférieure à 85 %. Le produit est également considéré comme toxique lorsque la variation pondérale, exprimée en grammes et calculée par la formule : Poids moyen du lot mesuré au jour 5 - poids moyen du même lot au jour 1, est égale ou inférieure à -4g . a) Test de la leucémie P 388 (GERAN et al., Cancer Chemother, 1972, 2, 07-57).
Les essais sont effectués avec des souris hybrides CDF1 inoculées par voie intrapéritonéale avec […] leucémiques de la lignée P 388. Le composé à tester est administré pendant 5 jours (Jl-J5). Le contrôle positif du test est le 5-fluorouracile qui est administré dans les mêmes conditions.
[…] Un composé est considéré comme étant actif lorsque le rapport T/C est supérieur à 127 %.

leucémie L 1210 = experiment: L 1210 leukemia test in vivo; set-up: species or system souris hybrides CDF1; conditions: 20 mg/kg i.p. J1-J5
Text: as §1, §2, §3, §4, §5, §6
b) Test de la leucémie L 1210 (GERAN et al., Cancer Chemother, 1972, 2, 07-57).
Les essais sont effectués avec des souris hybrides CDF1 inoculées avec 10^5 cellules leucémiques de la lignée L 1210. Le composé à tester est administré pendant 5 jours (J1-J5). Le contrôle positif du test est le 5-fluorouracile administré dans les mêmes conditions. Le nombre d'animaux survivants est évalué au jour J 60. Un composé est considéré comme étant actif lorsque le rapport T/C est supérieur ou égal à 125 %.

mélanome B 16 = experiment: B 16 melanoma test in vivo; set-up: species or system souris hybrides BDF1; Jour médian de survie: unit not given here; conditions: for Survivants: at day J 60
Text: as §1, §2, §3, §4, §5, §6
c) Test du mélanome B 16 (GERAN et al., Cancer Chemother, 1972, 2, 07-57).
Les essais sont effectués avec des souris hybrides BDF1 inoculées avec O,5 ml d'un homogénat de mélanome B 16 réalisé à partir de 1 g de tumeur dans 10 ml de sérum physiologique. Le composé à tester est administré pendant 9 jours (J1-J9). Le contrôle positif du test est le Cis- platine administré dans les mêmes conditions. Le nombre d'animaux survivants est évalué au jour J 60. Un composé est considéré comme étant actif lorsque le rapport T/C est supérieur ou égal à 125 %.

réticulosarcome M5-M5076 = experiment: M5-M5076 reticulosarcoma test in vivo; set-up: species or system souris hybrides BDF1; conditions: 160 mg/kg i.p. J1, 5, 9, 13, 17
Text: as §1, §2, §3, §4, §5, §6
d) Test du réticulosarcome M5-M5076.
Les essais sont effectués avec des souris hybrides BDF1 inoculées avec 10^6 cellules de la lignée M5-M5076. Le composé à tester est administré 5 fois successivement de façon séquentielle (Jl, 5, 9, 13, 17). Le contrôle positif du test est le cyclophosphamide administré dans les mêmes conditions. Le nombre d'animaux survivants est évalué au jour J 75. Un composé est considéré comme actif lorsque le rapport T/C est supérieur ou égal à 125 %.

[2] = 5 mg/kg i.p. J1-J5, at day J 40
[3] = 10 mg/kg i.p. J1-J5, at day J 40
[4] = 20 mg/kg i.p. J1-J5, at day J 40
[5] = 40 mg/kg i.p. J1-J5, at day J 40
[6] = 80 mg/kg i.p. J1-J5, at day J 40

Row | SMILES | IC50 [1] [nM] | survival (in vivo) [%] | Jour médian de survie (leucémie P 388; 5 mg/kg i.p. J1-J5) | T/C % (leucémie P 388; 5 mg/kg i.p. J1-J5) [%] | Survivants (leucémie P 388; [2]) | Jour médian de survie (leucémie P 388; 10 mg/kg i.p. J1-J5) | T/C % (leucémie P 388; 10 mg/kg i.p. J1-J5) [%] | Survivants (leucémie P 388; [3]) | Jour médian de survie (leucémie P 388; 20 mg/kg i.p. J1-J5) | T/C % (leucémie P 388; 20 mg/kg i.p. J1-J5) [%] | Survivants (leucémie P 388; [4]) | Jour médian de survie (leucémie P 388; 40 mg/kg i.p. J1-J5) | T/C % (leucémie P 388; 40 mg/kg i.p. J1-J5) [%] | Survivants (leucémie P 388; [5]) | Jour médian de survie (leucémie P 388; 80 mg/kg i.p. J1-J5) | T/C % (leucémie P 388; 80 mg/kg i.p. J1-J5) [%] | Survivants (leucémie P 388; [6]) | Jour médian de survie (leucémie P 388; 50 mg/kg i.p. J1-J5) | T/C % (leucémie P 388; 50 mg/kg i.p. J1-J5) [%] | further results
1 | Cc1cnc(NCCCN(C)C)c2c3cnccc3n(C)c12 [Dérivé N° 9, diméthyl-4,5 [(diméthylamino-3 propyl-1)-amino]-1 5-H pyrido[3',4':4,5]pyrrolo[3,2-c]pyridine] | 300 | 100 | 15,75 | 136 | 0 | 17,38 | 150 | 0 | 19,33 | 167 | 0 | 20,0 | 173 | 0 | 8,25 | 71 | 0 |  |  | 
2 | Cc1cnc(NCCCN(C)C)c2c1[nH]c1ccncc12 [Dérivé N° 3 bis, [(diméthylamino-3 propyl-1)amino]-1 méthyl-4 5-H pyrido[3',4':4,5]pyrrolo[3,2-c]pyridine] | 160 |  | 15,83 | 145 | 0/10 | 17,13 | 156 | 0/10 | 20,33 | 186 | 0/10 | 20,25 | 184 | 0/10 | 19,88 | 181 | 0/10 | 22 | 181 | Survivants (leucémie P 388; 50 mg/kg i.p. J1-J5, à J 42): 1/10 à J 42
3 | O=c1[nH]cc(F)c(=O)[nH]1 [Fluorouracile, 5-fluorouracile, reference compound] |  |  |  |  |  |  |  |  |  |  | 0/10 and 0 |  |  |  |  |  |  |  |  | Jour médian de survie (leucémie L 1210): 16,0 and 18; T/C % (leucémie L 1210): 178% and 195%; Survivants (leucémie L 1210; at day J 60): 0
4 | CCN(CC)CCCNc1ncc(C)c2c1c1cnccc1n2CC [Dérivé N° 5, [(diéthylamino-3 propyl-1)amino]-1 méthyl-4 éthyl-5 5-H pyrido[3',4':4,5]pyrrolo[3,2-c]pyridine] | 1400 |  |  |  |  |  |  |  |  |  |  |  |  |  |  |  |  |  |  | 
5 | CCN(CC)CCCNc1ncc(C)c2[nH]c3ccncc3c12 [Dérivé N° 1, [(diéthylamino-3 propyl-1)amino]-1 méthyl-4 5-H pyrido[3',4':4,5]pyrrolo[3,2-c]pyridine] | 340 | 100 | 14,1 | 132 | 0/10 | 14,6 | 136 | 0/10 | 15,9 | 148 | 0/10 | 16,6 | 155 | 0/10 |  |  |  | 3,1 | 26 | Survivants (leucémie P 388; 50 mg/kg i.p. J1-J5, at day J 40): 0/10; Jour médian de survie (mélanome B 16; 5 mg/kg i.p. J1-J9): 28,25; T/C % (mélanome B 16; 5 mg/kg i.p. J1-J9): 119%; Survivants (mélanome B 16; 5 mg/kg i.p. J1-J9): 0; Jour médian de survie (mélanome B 16; 10 mg/kg i.p. J1-J9): 30,0; T/C % (mélanome B 16; 10 mg/kg i.p. J1-J9): 126%; Survivants (mélanome B 16; 10 mg/kg i.p. J1-J9): 0; Jour médian de survie (mélanome B 16; 20 mg/kg i.p. J1-J9): 34,25; T/C % (mélanome B 16; 20 mg/kg i.p. J1-J9): 144%; Survivants (mélanome B 16; 20 mg/kg i.p. J1-J9): 0
6 | O=P1(N(CCCl)CCCl)NCCCO1 (stereo not shown) [Cyclophosphamide, cyclophosphamide, reference compound] |  |  |  |  |  |  |  |  |  |  |  |  |  |  |  |  |  |  |  | Jour médian de survie (réticulosarcome M5-M5076): > 60 and > 71; T/C % (réticulosarcome M5-M5076): >229% and >246%; Survivants (réticulosarcome M5-M5076; at day J 75): 9 and 6
